For test [1], the system named is endometriotic lesions. Kind of test: Endometriosis model in rhesus macaques: uterus weight and weights/size of endometrial lesions after 60 days of treatment. It is filed as in vivo. The protocol: (§1) The activity of the mineralcorticoid receptor antagonist spironolactone was tested in an endometriosis model in non-human primates. Non-human primates are the only species apart from man where endometriosis occurs spontaneously under natural conditions. They are therefore the most relevant model for examining this disorder. […] In this procedure, the animals are given a depot for estradiol substitution which keeps the serum level at 80 to 100 pg/ml. In this manner, it is ensured that the endometriotic lesions are exposed to physiological concentrations of estradiol. By virtue of the depot, interindividual variations of the hormone concentrations and their effect on the results can be excluded. After the treatment, the size of the endometrium lesions was determined, and the proliferation of these lesions was detected by a histological analysis. […] In an autologous transplantation, a plurality of lesions from endometrium tissue were implanted subcutaneously and intraperitoneally/abdominally into rhesus macaques.

For test [2], the system named is endometriotic lesions. Kind of test: Rate of proliferation of endometrial lesions in the rhesus macaque endometriosis model (Ki67 staining, BrDU incorporation). Type of test: in vivo, rhesus macaques. The settings on record: abdominal lesions, secretory cells; 60 days spironolactone vs control; FIG. 3. As to the method: as §1, with “Accordingly, the mineralcorticoid receptor antagonist spironolactone has” for “In an autologous transplantation,”, “positive effect on endometriosis genesis.” for “plurality of lesions from endometrium tissue were implanted subcutaneously and intraperitoneally/abdominally into rhesus macaques.”
Examination of the rate of proliferation of endometrial lesions in an endometriosis model in rhesus macaques after treatment with spironolactone.
Both detection of cell division in the endometriotic lesions by Ki67 (top row) and by incorporation of BrDU (bottom row) show a reduced value in the animals treated with spironolactone (control, left, compared to spironolactone, right).

The mark [3] stands for this setting: after 60 days of treatment, macaque model, n = 4.

Entries after “also recorded” stand apart in the source; their conditions may differ.

Take `CC(=O)S[C@@H]1CC2=CC(=O)CC[C@]2(C)[C@H]2CC[C@@]3(C)[C@@H](CC[C@@]34CCC(=O)O4)[C@H]12` [spironolactone]: the “size of the endometriotic lesions compared to control animals” value with endometriotic lesions [1] (60 days estradiol + spironolactone 30 mg/kg/day vs estradiol control) is listed as “significant reduction of the endometriotic lesions”. In addition, the “effect on the uterus as such” value in the test with endometriotic lesions [1] (60 days estradiol + spironolactone vs estradiol control) is given as “no significant effect”. In the test on endometriotic lesions [1] (60 days estradiol + spironolactone vs estradiol control, both types of lesions), the “weight of subcutaneous and intraperitoneal/abdominal lesions after treatment (in words)” value is “reduction in weight”. In the test with endometriotic lesions [2], the “proliferation in the lesions by bromodeoxyuridine (BrDU) incorporation” value is listed as “reduction of proliferation; also recorded: strongly reduced; also recorded: reduced value” and the “proliferation in the lesions by staining of the mitotic antigen Ki67” value is “reduction of proliferation; also recorded: strongly reduced; also recorded: reduced value”.
Regarding `C[C@]12CC[C@@H]3c4ccc(O)cc4CC[C@H]3[C@@H]1CC[C@@H]2O` [E2, estradiol], in the test with endometriotic lesions [1] (setting [3]), the Intraabdominal lesion wt is 0.068 + 0.11 g, the Subcutaneous lesion wt stood at 0.039 ± 0.008 g and the Uterus wt turned out to be 3.75 ± 0.496 g.

Source of the values: US20110003778A1, “MINERALCORTICOID RECEPTOR ANTAGONISTS FOR THE TREATMENT OF ENDOMETRIOSIS” (Bayer Schering Pharma Aktiengesellschaft, priority 2007, published 2011).
